This note sets out measurements from publication PMC5951806, “Rapid labelling and covalent inhibition of intracellular native proteins using ligand-directed N-acyl-N-alkyl sulfonamide” (Nature Communications, 2018).

Assay [1] deals with T1, ADP/ATP translocase 3 (SLC25A6) (Homo sapiens, UniProt P12236).
T1 sequence (P12236 1-298): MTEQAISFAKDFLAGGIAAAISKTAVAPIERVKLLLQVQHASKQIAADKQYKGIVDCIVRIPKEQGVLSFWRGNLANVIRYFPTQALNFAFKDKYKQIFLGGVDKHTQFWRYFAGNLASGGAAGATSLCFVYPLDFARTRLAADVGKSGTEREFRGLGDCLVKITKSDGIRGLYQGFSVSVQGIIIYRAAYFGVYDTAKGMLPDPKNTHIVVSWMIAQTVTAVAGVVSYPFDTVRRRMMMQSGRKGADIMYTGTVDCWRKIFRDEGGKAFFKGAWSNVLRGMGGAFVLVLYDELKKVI
The assay can be described thus: TMT LC-MSMS of 11-labelled proteins. In kind it is cell-based.

Assay [2] addresses T2, ADP/ATP translocase 2 (SLC25A5) (Homo sapiens, UniProt P05141).
T2 sequence (P05141 1-298): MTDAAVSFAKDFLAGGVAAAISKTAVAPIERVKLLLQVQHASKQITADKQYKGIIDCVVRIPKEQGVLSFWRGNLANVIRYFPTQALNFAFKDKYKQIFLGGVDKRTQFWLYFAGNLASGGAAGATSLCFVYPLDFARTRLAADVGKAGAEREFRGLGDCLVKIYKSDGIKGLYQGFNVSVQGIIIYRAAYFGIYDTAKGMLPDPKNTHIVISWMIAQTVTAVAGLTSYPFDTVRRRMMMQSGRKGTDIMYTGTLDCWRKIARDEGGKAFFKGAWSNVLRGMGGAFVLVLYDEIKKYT
As to the kind of experiment: TMT LC-MSMS of 11-labelled proteins. In kind it is cell-based.

Setting [3] is: sheet Exp1, SKBR3 cells, 11 0.5 µM 3 h vs DMSO.
The mark [4] stands for this setting: sheet Exp1, SKBR3 cells, 11 0.5 µM 3 h vs with PU-H71 10 µM.
The mark [5] stands for this setting: sheet Merged, SKBR3 cells, 11 0.5 µM 3 h vs DMSO.
Setting [6] is: sheet Merged, SKBR3 cells, 11 0.5 µM 3 h vs with PU-H71 10 µM.

Take `CC(=O)Oc1ccc2c(c1)Oc1cc(OC(C)=O)ccc1C21OC(=O)c2cc(C(=O)NCCOCCOCCNC(=O)CCCC(=O)N(CC#N)S(=O)(=O)c3ccc(C(=O)NCCCn4c(Sc5cc6c(cc5I)OCO6)nc5c(N)ncnc54)cc3)ccc21` [compound 11]: the “Abundance Ratio: (11) / (11 with PU-H71)” value in assay [1] (Exp3, SLC25A6) stood at 0.576; in assay [1] (setting [4]) it was 0.613; in assay [1] (sheet Exp2, SLC25A6), 0.601; in assay [1] (setting [6]), 0.586; in assay [2] (Exp3, SLC25A5) it was 0.462; in assay [2] (setting [4]), 0.711. Further, the “Abundance Ratio: (11) / (11 with PU-H71)” value in assay [2] (sheet Exp2, SLC25A5) stood at 0.597; in assay [2] (setting [6]), 0.563. Further, the “Abundance Ratio: (11) / (DMSO)” value was 5.78 in assay [1] (Exp3, SLC25A6); 5.287 in assay [1] (setting [3]); 6.595 in assay [1] (sheet Exp2, SLC25A6); 5.939 in assay [1] (setting [5]); 2.668 in assay [2] (Exp3, SLC25A5); 5.138 in assay [2] (setting [3]). Also, the “Abundance Ratio: (11) / (DMSO)” value was found to be 5.273 in assay [2] (sheet Exp2, SLC25A5) and 2.741 in assay [2] (setting [5]). The “Abundances (Grouped): 11” value in assay [1] (Exp3, SLC25A6) was determined as 626.5; in assay [1] (sheet Exp2, SLC25A6), 579; in assay [2] (Exp3, SLC25A5) it was 245.2; in assay [2] (sheet Exp2, SLC25A5) it was 116. Moreover, the “Abundances (Grouped): 11 with PU-H71” value is reported as 1087.4 in assay [1] (Exp3, SLC25A6); 963.9 in assay [1] (sheet Exp2, SLC25A6); 530.2 in assay [2] (Exp3, SLC25A5); 194.4 in assay [2] (sheet Exp2, SLC25A5).
